Source: US7199161B2, “Substituted bicylo[3.3.1]nonan-2,4,9-triones as pharmaceutical active ingredients” (Diagenics International Corporation, priority 2002, dated 2007)

Columns and labels:
[1] = test system: M51 WT cells (carcinoma of stomach); assay: SRB assay, M51 WT; type: cell-based, human; conditions: mean ± SD of at least three experiments
Experimental: (§5) Six unambiguously characterized tumor cell lines of human origin (native cell lines and those converted into resistant subclones) and two non-tumor cell lines are used for further investigations (table 2).
(§6) The sensitivity of the cell lines to the substance (Ic′) is determined in a so-called sulforhodamine B (SRB) assay.
(§7) The concentration of substance (Ic′) which inhibits cell growth by 50% (IC50, determined from semilogarithmic dose versus effect plots) are indicated.

[2] = test system: M51 DDP cells (cisplatin resistant); assay: SRB assay, M51 DDP; type: cell-based, human
Experimental: as §6, §7

[3] = test system: HT29 WT cells (adenocarcinoma of colon); assay: SRB assay, HT29 WT; type: cell-based, human
Experimental: as §6, §7

[4] = test system: HT29 24R cells (5-FU resistant); assay: SRB assay, HT29 24R; type: cell-based, human
Experimental: as §6, §7

[5] = test system: HT29 SN38 cells (SN38 resistant); assay: SRB assay, HT29 SN38; type: cell-based, human
Experimental: as §6, §7

[6] = test system: HCT8 WT cells (carcinoma of colon); assay: SRB assay, HCT8 WT; type: cell-based, human
From the text: The target cell used is, inter alia, a bowel cancer cell line of human origin (HCT8 WT).

[7] = test system: HCT8 SN38 cells (SN38 resistant); assay: SRB assay, HCT8 SN38; type: cell-based, human
Experimental: as §6, §7

[8] = test system: HCT8 ICID cells (raltitrexed resistant); assay: SRB assay, HCT8 ICID; type: cell-based, human
Experimental: as §6, §7

[9] = test system: MCF-7 WT cells (adenocarcinoma of breast); assay: SRB assay, MCF-7 WT; type: cell-based, human
Experimental: as §6, §7

[10] = test system: MCF-7 AD cells (doxorubicin resistant gp 170+); assay: SRB assay, MCF-7 AD; type: cell-based, human
Experimental: as §5, §6, §7

[11] = test system: MCF-7 24R cells (5-FU resistant); assay: SRB assay, MCF-7 24R; type: cell-based, human
Experimental: as §5, §6, §7

[12] = test system: A2780 WT cells (adenocarcinoma of ovary); assay: SRB assay, A2780 WT; type: cell-based, human
Experimental: as §5, §6, §7

[13] = test system: A2780 DX5 cells (doxorubicin resistant gp 170+); assay: SRB assay, A2780 DX5; type: cell-based, human; conditions: A2780 DX5, doxorubicin resistant gp 170+
Experimental: as §5, §6, §7

[14] = test system: A2780 CP2 cells (cisplatin resistant); assay: SRB assay, A2780 CP2; type: cell-based, human
Experimental: as §5, §6, §7

[15] = test system: H460 WT cells (large-cell lung carcinoma); assay: SRB assay, H460 WT; type: cell-based, human
Experimental: as §5, §6, §7

3T3 mouse fibroblasts = assay: SRB assay, 3T3; type: cell-based; conditions: 3T3 mouse fibroblasts (non-tumor)
Experimental: as §5, §6, §7

[16] = test system: MCR-5 diploid embryonic lung fibroblasts; assay: SRB assay, MCR-5; type: cell-based; conditions: MCR-5 fibroblasts (non-tumor)
Experimental: as §5, §6, §7

topoisomerase I = target: T1, topoisomerase I (Homo sapiens, UniProt P11387); assay: Topo I unwinding assay (pBR322 plasmid DNA, cell nucleus extract); type: biochemical; conditions: for concentration for in vitro topoisomerase I inhibition as multiple of the IC50 of tumor growth: multiple of the concentration inhibiting tumor cell growth by 50%
T1 construct: 160 ng of cell nucleus extract with the topoisomerase I present therein; endogenous in cells; host or cells: tumor cell lines (cell nucleus extract)
T1 sequence (P11387 1-765): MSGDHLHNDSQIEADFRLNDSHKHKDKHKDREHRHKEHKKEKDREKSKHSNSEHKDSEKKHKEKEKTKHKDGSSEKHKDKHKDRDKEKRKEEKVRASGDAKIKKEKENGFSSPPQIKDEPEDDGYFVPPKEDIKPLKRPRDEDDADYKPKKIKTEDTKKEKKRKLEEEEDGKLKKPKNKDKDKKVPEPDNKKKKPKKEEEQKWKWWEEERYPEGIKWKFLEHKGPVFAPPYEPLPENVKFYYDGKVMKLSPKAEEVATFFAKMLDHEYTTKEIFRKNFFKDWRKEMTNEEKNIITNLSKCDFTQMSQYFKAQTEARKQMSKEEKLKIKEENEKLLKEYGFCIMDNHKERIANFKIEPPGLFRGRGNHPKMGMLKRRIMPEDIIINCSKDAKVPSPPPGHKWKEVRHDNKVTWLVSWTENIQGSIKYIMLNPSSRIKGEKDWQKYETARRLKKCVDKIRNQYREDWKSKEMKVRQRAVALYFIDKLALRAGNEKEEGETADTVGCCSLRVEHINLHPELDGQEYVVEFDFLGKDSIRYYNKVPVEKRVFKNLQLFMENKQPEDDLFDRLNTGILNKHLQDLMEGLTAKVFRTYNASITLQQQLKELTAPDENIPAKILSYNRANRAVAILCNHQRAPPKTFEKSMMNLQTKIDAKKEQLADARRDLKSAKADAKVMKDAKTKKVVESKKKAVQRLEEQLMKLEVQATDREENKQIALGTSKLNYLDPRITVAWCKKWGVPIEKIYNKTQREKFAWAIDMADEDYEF
From the text: The effect of the substance (Ic′) on topoisomerase I is investigated by carrying out the so-called Topo I unwinding assay. The assay is based on an ATP-independent unwinding of twisted pBR322 plasmid DNA dimers by topoisomerase I. The two different topological forms of the plasmid DNA, the twisted form and unwound, relaxed form, are separated in this investigation by means of an agarose gel. The enzyme topoisomerase I is obtained for this purpose from cell nucleus extracts of the tumor cell lines.
Cell nucleus extracts are obtained by the method of Sullivan with the modifications of Danks et al.

[17] = test system: HCT8 WT bowel cancer cells; assay: Cell cycle analysis by flow cytometry (BrdU/PI); type: cell-based, human; conditions: IC50 concentration, 24 hours
Experimental: Flow cytometric investigations by an adapted method of Tsugita M. et al. are used for the analysis.
Exponentially growing HCT8 WT bowel cancer cells are treated with substance (Ic′) with the determined IC50 concentration for 24 hours, and then the cells are incubated with BrdU. The cells fixed with methanol are subjected to a treatment with a detergent (Triton X-100/HCl) in order to denature the DNA strands. After incubation with the fluorescence-labeled antibody (anti-BrdU mAb, FITC-labeled), the second fluorescent dye (PI, propidium iodide) is added.
The DNA content (propidium iodide fluorescence) and the amount of BrdU taken up (FITC fluorescence) are determined using a Coulter flow cytometer (Coulter EPICS XL). Exemplary results are depicted in FIG. 3a and 3b.
FIG. 3a and 3b show BrdU and PI uptakes into the DNA of HCT8 WT cells, untreated (control, […]) and treated with substance (Ic′) (IC50, 24 hours, FIG. 4b). The depicted results are representative of n=3 independent experiments.

[18] = test system: H460 WT bronchial carcinoma cells; assay: DNA double-strand breaks in [14C]d-thymidine-labeled cells, H460 WT; type: cell-based, human; conditions: up to 10 times the IC50 concentration, 6 hours
Experimental: (§1) DNA isolated after treatment of the cells for various times with substance (Ic′) is for this purpose analyzed by gel electrophoresis.
(§2) Determination of the DNA double-strand breaks is performed on ^14C-labeled DNA. For this purpose, [^14C]d-thymidine-labeled cells are treated with various concentrations of substance (Ic′). The DNA is isolated by an adapted method of Chia Chiao et al.
(§3) The DNA fractionated by gel electrophoresis is subsequently stained with ethidium bromide.
(§4) On a transilluminator (302 nm), the intact DNA which has not migrated in the electric field is separated from the fragmented DNA, which has thus migrated into the gel, by extraction. The isolated gel and DNA fragments are liquefied at +80° C. in the presence of hydrochloric acid. After addition of a scintillator it is possible to determine the radioactivity using a liquid scintillation meter (TPI-CARB 2100RT). The measured radioactivity is indicated in […] (cpm).
The results represent averages and their standard deviation from n=3 independent experiments.

[19] = test system: HT29 WT colorectal carcinoma cells; assay: DNA double-strand breaks, HT29 WT; type: cell-based, human
Experimental: as §1, §2, §3, §4

human telomerase = target: T2, human telomerase (Homo sapiens, UniProt O14746); assay: Telomeric Repeat Amplification Assay (TRAP) ELISA; type: biochemical; conditions: at 50 μg/ml; telomerase from HCT8 WT cells; range 10 to 50 μg/ml tested
T2 construct: human telomerase obtained from cells of a colon carcinoma (HCT8 WT); endogenous in cells; host or cells: HCT8 WT colon carcinoma cells
Experimental: The effect of substance (Ic′) on human telomerase is determined by carrying out the so-called Telomeric Repeat Amplification Assay (TRAP) ELISA, based on the method of N. W. Kim et al.
This method is based on use of the polymerase chain reaction (PCR). This entails, in a first step, a number of (GGTTAG) motifs being attached by means of the telomerase activity to the 3′ end of a biotin-labeled oligonucleotide (TS=telomerase substrate). In a second step, the products extended in this way are amplified by the PCR technique using TS and RP (R=reverse) primers. In this way, a “ladder” of products in increments of 6 bases (initial size=50 nucleotides) is generated. During the amplification, DNP-labeled dCTP is incorporated into the PCR products. Detection and quantification of the synthesized telomerase products using a sandwich ELISA method are a measure of the telomerase enzymatic activity.
The telomerase products carry the biotin-labeled TS primers and bind to the surface of microtiter plates previously coated with streptavidin. An anti-DIG antibody conjugated to POD binds to the […] nucleotides incorporated during the amplification. After addition of the substrate TMB, the telomerase activity is visualized by […] via the onset of the color reaction by the enzyme POD. In this case, the measured absorption is directly proportional to the telomerase activity. […]

Taq polymerase = Taq polymerase (Thermus aquaticus, UniProt P19821); assay: TSR8 template control experiment (DNA polymerase); type: biochemical; conditions: maximum concentration 50 μg/ml
Experimental: In order to ensure the effect of substance (Ic′) on telomerase, an effect of substance (Ic′) on DNA polymerase must be ruled out. In a preliminary experiment with TSR8 as internal control, the effect of substance (Ic′) at various concentration levels was ruled out.
Amplification of the TSR8 template depends only on DNA polymerase. Every inhibitor of this enzyme can be detected using the substrate.
The experiment is carried out in triplicates.

[20] = test system: ERK1/2 protein (MAP kinase); assay: Western blot analysis of ERK1/2 phosphorylation; type: cell-based, human; conditions: HCT8 WT, detectable even at a dose corresponding to the IC50
From the text: Phosphorylation of certain signal transduction pathways plays an essential role in the regulation of cell growth and gene expression. The protein ERK1/2 (MAP kinase) belongs to the MAP kinase signal transduction pathway.
Treatment of human colon carcinoma cells (HCT8 WT) with substance (Ic′) leads to phosphorylation of this protein, which is detected in a Western blot analysis (FIG. 8).

[21] = test system: HCT8 WT colon carcinoma cells
Experimental: In this case, tumor cells, e.g. colon carcinoma cells (HCT8 WT), are coincubated with both active ingredients in different dosages in each case for 24 hours (FIG. 9). FIG. 9 represents the coincubation experiment on the cytotoxicity with substance (Ic′) and a specific ERK1/2 inhibitor (MAP kinase inhibitor). HCT8 WT cells were coincubated. The points shown indicate the corresponding ratios (% of the respective IC50 concentration) of the two active ingredients to one another.

[22] = test system: tumor cell lines (native and resistant subclones) and non-tumor cell lines
Experimental: as §5, §6, §7

T2 sequence (O14746 whole entry): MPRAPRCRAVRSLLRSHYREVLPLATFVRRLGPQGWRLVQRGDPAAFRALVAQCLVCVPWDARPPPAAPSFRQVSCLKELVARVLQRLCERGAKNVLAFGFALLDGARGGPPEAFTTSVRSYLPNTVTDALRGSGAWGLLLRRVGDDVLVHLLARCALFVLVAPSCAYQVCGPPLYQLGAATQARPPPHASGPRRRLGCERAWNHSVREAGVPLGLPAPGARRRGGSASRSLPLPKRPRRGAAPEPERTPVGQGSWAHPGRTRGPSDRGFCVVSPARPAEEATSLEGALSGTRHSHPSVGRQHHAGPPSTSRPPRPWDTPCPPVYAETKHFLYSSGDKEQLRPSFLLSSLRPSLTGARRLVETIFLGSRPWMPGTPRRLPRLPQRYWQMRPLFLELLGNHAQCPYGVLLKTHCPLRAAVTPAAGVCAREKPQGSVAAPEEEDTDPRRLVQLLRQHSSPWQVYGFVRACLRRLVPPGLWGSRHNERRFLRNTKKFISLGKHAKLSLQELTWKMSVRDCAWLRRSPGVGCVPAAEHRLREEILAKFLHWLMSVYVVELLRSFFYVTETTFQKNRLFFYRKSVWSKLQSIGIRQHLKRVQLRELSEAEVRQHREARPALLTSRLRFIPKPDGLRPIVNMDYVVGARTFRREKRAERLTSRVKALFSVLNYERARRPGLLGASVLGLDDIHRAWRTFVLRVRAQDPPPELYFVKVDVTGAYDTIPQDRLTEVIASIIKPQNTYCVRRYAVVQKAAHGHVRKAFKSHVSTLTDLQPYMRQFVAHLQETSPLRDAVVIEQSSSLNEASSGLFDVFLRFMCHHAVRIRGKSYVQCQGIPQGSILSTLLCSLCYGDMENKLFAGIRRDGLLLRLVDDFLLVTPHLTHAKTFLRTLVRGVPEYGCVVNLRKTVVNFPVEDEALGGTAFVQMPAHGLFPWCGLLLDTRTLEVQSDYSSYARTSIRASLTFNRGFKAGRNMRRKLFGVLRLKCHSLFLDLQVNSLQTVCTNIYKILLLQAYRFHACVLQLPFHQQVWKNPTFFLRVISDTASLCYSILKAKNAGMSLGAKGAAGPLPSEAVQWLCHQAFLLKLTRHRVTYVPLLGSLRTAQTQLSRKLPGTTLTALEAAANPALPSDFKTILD
T2 sequence (O60832 whole entry partner): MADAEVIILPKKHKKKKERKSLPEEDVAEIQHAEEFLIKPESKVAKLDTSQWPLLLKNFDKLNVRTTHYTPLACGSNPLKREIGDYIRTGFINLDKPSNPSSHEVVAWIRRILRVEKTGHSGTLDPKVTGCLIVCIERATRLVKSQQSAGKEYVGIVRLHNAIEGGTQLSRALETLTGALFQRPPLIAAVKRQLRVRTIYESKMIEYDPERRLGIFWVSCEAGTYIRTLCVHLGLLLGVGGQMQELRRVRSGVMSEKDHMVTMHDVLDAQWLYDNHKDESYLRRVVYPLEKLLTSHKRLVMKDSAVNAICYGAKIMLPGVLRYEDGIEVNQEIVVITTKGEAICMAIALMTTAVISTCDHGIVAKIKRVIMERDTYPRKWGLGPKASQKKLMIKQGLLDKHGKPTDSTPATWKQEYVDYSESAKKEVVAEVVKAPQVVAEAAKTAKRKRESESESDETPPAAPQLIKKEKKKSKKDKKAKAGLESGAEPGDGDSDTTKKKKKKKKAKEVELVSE
T2 sequence (Q9NX24 whole entry partner): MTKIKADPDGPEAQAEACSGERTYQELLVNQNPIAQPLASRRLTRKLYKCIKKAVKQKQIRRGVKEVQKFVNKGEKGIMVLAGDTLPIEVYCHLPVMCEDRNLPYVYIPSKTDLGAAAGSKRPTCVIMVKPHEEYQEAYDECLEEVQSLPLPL
T2 sequence (Q9NPE3 whole entry partner): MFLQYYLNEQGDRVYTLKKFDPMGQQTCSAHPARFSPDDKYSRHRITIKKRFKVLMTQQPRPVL
T2 sequence (Q9NY12 whole entry partner): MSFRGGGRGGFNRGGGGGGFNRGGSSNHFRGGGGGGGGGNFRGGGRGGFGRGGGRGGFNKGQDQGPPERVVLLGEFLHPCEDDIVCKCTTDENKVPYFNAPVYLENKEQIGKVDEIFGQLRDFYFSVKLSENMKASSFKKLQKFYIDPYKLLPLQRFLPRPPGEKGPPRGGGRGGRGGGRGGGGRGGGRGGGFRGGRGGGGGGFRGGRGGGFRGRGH
T2 sequence (Q9BUR4 whole entry partner): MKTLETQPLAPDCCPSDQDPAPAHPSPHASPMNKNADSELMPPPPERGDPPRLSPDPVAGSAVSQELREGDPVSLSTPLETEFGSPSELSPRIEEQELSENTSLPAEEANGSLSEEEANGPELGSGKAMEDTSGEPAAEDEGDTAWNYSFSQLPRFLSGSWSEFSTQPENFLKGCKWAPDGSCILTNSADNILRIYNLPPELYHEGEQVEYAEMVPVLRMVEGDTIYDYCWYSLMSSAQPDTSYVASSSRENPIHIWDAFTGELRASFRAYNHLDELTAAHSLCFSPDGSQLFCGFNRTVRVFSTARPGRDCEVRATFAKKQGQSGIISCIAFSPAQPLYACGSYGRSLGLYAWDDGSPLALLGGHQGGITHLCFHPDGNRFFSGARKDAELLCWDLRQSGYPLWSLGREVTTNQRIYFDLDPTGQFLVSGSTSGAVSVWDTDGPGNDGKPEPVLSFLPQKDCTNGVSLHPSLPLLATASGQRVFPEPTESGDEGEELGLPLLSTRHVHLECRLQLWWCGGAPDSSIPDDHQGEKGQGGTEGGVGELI
Taq polymerase, sequence (P19821 whole entry): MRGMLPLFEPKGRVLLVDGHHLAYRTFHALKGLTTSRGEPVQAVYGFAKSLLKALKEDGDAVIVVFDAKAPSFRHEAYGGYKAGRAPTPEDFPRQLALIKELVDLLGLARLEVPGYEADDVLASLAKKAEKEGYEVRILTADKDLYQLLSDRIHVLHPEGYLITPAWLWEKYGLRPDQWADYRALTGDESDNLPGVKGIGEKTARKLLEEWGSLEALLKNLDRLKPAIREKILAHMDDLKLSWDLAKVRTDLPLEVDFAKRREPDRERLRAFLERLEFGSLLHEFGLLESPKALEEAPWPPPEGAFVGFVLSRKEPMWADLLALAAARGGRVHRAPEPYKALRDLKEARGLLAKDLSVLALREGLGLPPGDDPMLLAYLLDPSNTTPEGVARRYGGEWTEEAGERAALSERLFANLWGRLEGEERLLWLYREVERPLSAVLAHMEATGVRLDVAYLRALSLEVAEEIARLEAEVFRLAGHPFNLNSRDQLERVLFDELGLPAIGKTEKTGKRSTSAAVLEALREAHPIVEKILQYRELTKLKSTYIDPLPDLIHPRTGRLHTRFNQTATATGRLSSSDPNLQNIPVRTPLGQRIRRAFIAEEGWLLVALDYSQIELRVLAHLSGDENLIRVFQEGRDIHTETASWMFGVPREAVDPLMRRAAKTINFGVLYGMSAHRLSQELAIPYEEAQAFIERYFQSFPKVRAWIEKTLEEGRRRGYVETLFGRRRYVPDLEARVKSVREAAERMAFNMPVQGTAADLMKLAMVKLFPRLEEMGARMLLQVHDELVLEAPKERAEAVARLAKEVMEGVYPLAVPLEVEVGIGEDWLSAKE

1-Benzoyl-8,8-dimethyl-2-hydroxy-3,5,7-tris-(3-methyl-2-butenyl)bicyclo[3.3.1]non-2-ene-4,9-dione [Substance (Ic′)]
IC50 [1]: 5.70 ± 0.21 µg/mL | IC50 [2]: 4.77 ± 0.13 µg/mL | IC50 [3]: 5.25 ± 0.43 µg/mL | IC50 [4]: 5.18 ± 0.76 µg/mL | IC50 [5]: 3.50 ± 1.40 µg/mL | IC50 [6]: 4.23 ± 0.19 µg/mL | IC50 [7]: 4.07 ± 0.08 µg/mL | IC50 [8]: 4.44 ± 0.13 µg/mL | IC50 [9]: 4.37 ± 0.12 µg/mL | IC50 [10]: 4.28 ± 0.08 µg/mL | IC50 [11]: 3.30 ± 0.51 µg/mL | IC50 [12]: 9.20 ± 0.82 µg/mL | IC50 [13]: 6.75 ± 1.55 µg/mL | IC50 [14]: 6.23 ± 0.12 µg/mL | IC50 [15]: 4.21 ± 0.91 µg/mL | IC50 (3T3 mouse fibroblasts): >80.0 µg/mL | IC50 [16]: 21.73 ± 6.47 µg/mL | inhibition of topoisomerase I activity (topoisomerase I; at 100 μg/ml, 160 ng cell nucleus extract): 100% | concentration for in vitro topoisomerase I inhibition as multiple of the IC50 of tumor growth (topoisomerase I): 20 times | effect on the cell cycle (BrdU uptake) [17]: inhibition of the synthesis phase | induction of DNA double-strand breaks [18]: induces significant amounts of double-strand breaks | induction of DNA double-strand breaks [19]: induction of substantial amounts of double-strand breaks | inhibition of human telomerase (human telomerase): Complete inhibition | inhibition of Taq polymerase (TSR8 template) (Taq polymerase): does not lead to a significant inhibition | phosphorylation of the ERK1/2 protein [20]: dose-dependent phosphorylation | cytotoxicity on coincubation with a specific ERK1/2 inhibitor (MAP kinase inhibitor) [21]: pronounced synergism | effect of the combination on tumor cell growth ([21]; 30% of IC50 of substance (Ic′) with 30% of IC50 of the specific ERK1/2 inhibitor, HCT8 WT): inhibition of growth | cytotoxicity for the non-tumor cell lines compared with tumor cell lines [22]: considerably less | cross-resistance to the indicated cytostatics ([22]; resistant subclones vs native cell lines, SRB assay): no cross-resistance

CC[C@@]1(O)C(=O)OCc2c1cc1n(c2=O)Cc2cc3c(CN(C)C)c(O)ccc3nc2-1 [topotecan, reference compound]
concentration for in vitro topoisomerase I inhibition as multiple of the IC50 of tumor growth (topoisomerase I): 1000 times
